Tests used:
SH-SY5Y [1] = test: Neuroprotective activity against […]-induced cell death in human SH-SY5Y cells at 10 to 50 uM preincubated for 1 hr followed by […] stimulation and measured after 24 hrs by MTT assay relative to control; assay type: functional; settings: dose 10-50 µM, time 25 hrs
SH-SY5Y [2] = test: Neuroprotective activity against […]-induced cell death in human SH-SY5Y cells assessed as increase in cell viability preincubated for 1 hr followed by […] stimulation and measured after 24 hrs by MTT assay; assay type: functional, cell-based; settings: dose 10-50 µM, time 25.0 hrs
SH-SY5Y [3] = test: Cytotoxicity against human SH-SY5Y cells assessed as reduction in cell viability at 10 to 50 uM measured after 24 hrs by MTT assay; assay type: cell-based; settings: dose 10-50 µM
[4] = Cytotoxicity against human SH-SY5Y cells assessed as cell viability at 50 uM measured after 24 hrs by MTT assay relative to control; assay type: cell-based; settings: read-out: Activity
SH-SY5Y [5] = test: Neuroprotective activity against […]-induced cell death in human SH-SY5Y cells assessed as cell viability at 1 uM preincubated for 1 hr followed by […] stimulation and measured after 24 hrs by MTT assay relative to control; assay type: functional; settings: time 25 hrs, read-out: Activity

SMILES | Activity (SH-SY5Y [1]) | Activity (SH-SY5Y [2]) | Activity (SH-SY5Y [3]) | viability at 24 h, 50 µM [4] | viability at 1 µM (SH-SY5Y [5])
NC1=NN(c2ccccc2)C(=O)C12[C@@H](c1cccc(Br)c1)c1c([nH]n(-c3ccccc3)c1=O)N[C@H]2c1cccc(Br)c1 (stereo in doubt; 3c-2) [listing 1 of 2 here] | 33.52% | – | – | – | –
Cc1ccc([C@H]2c3c([nH]n(-c4ccccc4)c3=O)N[C@@H](c3ccc(C)cc3)C23C(=O)N(c2ccccc2)N=C3N)cc1 (stereo partly drawn) | 28.66% | Dose-dependent effect | Non-Toxic | – | –
COc1ccc([C@H]2c3c([nH]n(-c4ccccc4)c3=O)N[C@@H](c3ccc(OC)cc3)C23C(=O)N(c2ccccc2)N=C3N)cc1 (stereo partly drawn) | 26.54% | Dose-dependent effect | Non-Toxic | – | –
NC1=NN(c2ccccc2)C(=O)C12[C@@H](c1ccc(Cl)cc1)c1c([nH]n(-c3ccccc3)c1=O)N[C@H]2c1ccc(Cl)cc1 (stereo partly drawn) | 20.05% | Dose-dependent effect | Non-Toxic | 84.9% | –
NC1=NN(c2ccccc2)C(=O)C12[C@@H](c1cccc(Br)c1)c1c([nH]n(-c3ccccc3)c1=O)N[C@H]2c1cccc(Br)c1 (stereo in doubt; 3c-1) [listing 1 of 2 here] | – | Dose-dependent effect | – | – | –
NC1=NN(c2ccccc2)C(=O)C12[C@@H](c1ccccc1[N+](=O)[O-])c1c([nH]n(-c3ccccc3)c1=O)N[C@H]2c1ccccc1[N+](=O)[O-] (stereo partly drawn) | 20.21% | Dose-dependent effect | Non-Toxic | – | –
COc1cc(/C=C/C(=O)CC(=O)/C=C/c2ccc(O)c(OC)c2)ccc1O [CURCUMIN] | – | – | – | – | 80.7%
NC1=NN(c2ccccc2)C(=O)C12[C@@H](c1cccc(Br)c1)c1c([nH]n(-c3ccccc3)c1=O)N[C@H]2c1cccc(Br)c1 (stereo in doubt; 3c-1) [listing 2 of 2 here] | 30.11% | – | Non-Toxic | – | –
NC1=NN(c2ccccc2)C(=O)C12[C@@H](c1cccc(Br)c1)c1c([nH]n(-c3ccccc3)c1=O)N[C@H]2c1cccc(Br)c1 (stereo in doubt; 3c-2) [listing 2 of 2 here] | – | Dose-dependent effect | – | – | –
NC1=NN(c2ccccc2)C(=O)C12[C@@H](c1cccc([N+](=O)[O-])c1)c1c([nH]n(-c3ccccc3)c1=O)N[C@H]2c1cccc([N+](=O)[O-])c1 (stereo partly drawn) | 22.81% | Dose-dependent effect | Non-Toxic | – | –
NC1=NN(c2ccccc2)C(=O)C12[C@@H](c1cccs1)c1c([nH]n(-c3ccccc3)c1=O)N[C@H]2c1cccs1 (stereo partly drawn) | 18.43% | Dose-dependent effect | Non-Toxic | – | –
NC1=NN(c2ccccc2)C(=O)C12[C@@H](c1ccccc1)c1c([nH]n(-c3ccccc3)c1=O)N[C@H]2c1ccccc1 (stereo partly drawn) | 27.03% | Dose-dependent effect | Non-Toxic | – | –
